# Measured values: paper PMC5021961, “Generation of self-clusters of galectin-1 in the farnesyl-bound form” (Scientific Reports, 2016)
# Target: T1, human galectin-1 (Gal-1) (Homo sapiens, UniProt P09382)
# T1 construct: gene LGALS1
# Test: Trp68 fluorescence titration (equilibrium fit with Hill coefficient […]), fluorescence lifetime, UV resonance Raman, CD, native PAGE self-clustering
# Format: binding
# T1 sequence (P09382 2-135): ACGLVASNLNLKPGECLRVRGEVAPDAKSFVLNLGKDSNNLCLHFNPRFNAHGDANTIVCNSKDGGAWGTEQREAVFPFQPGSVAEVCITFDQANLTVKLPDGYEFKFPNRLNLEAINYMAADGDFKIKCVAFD
smiles,measurement,value
"CC(C)=CCC/C(C)=C/CC/C(C)=C/CSc1ccccc1C(=O)O [FTS, farnesyl thiosalicylic acid]",Kd,~2.3 µM
